In BindingDB's records for doi:10.1074/jbc.M113.453423 (Université Montpellier 1, 2013):
Where a SMILES comes first, the peptide text is derived from it. [ ]: non-standard residue; d: D form.

Experiments:
Assay in all cases: GHS Ligand Binding Assay
[1] = biological target: Growth hormone secretagogue receptor type 1/Isoform 1B of Growth hormone secretagogue receptor type 1 (1B) (Homo sapiens, UniProt Q92847)
Procedure: (§1) Titration experimentswere carried out with protein concentrations in the 10 nM protein concentration range and increasing ligand concentrations. […] Buffer contributions were systematically subtracted.

[2] = biological target: Dimer of Growth hormone secretagogue receptor type 1 (Homo sapiens, UniProt Q92847)
Procedure: as §1

[3] = biological target: Growth hormone secretagogue receptor type 1 (Homo sapiens, UniProt Q92847)
Procedure: as §1

Growth hormone secretagogue receptor type 1, sequence (Q92847 whole entry): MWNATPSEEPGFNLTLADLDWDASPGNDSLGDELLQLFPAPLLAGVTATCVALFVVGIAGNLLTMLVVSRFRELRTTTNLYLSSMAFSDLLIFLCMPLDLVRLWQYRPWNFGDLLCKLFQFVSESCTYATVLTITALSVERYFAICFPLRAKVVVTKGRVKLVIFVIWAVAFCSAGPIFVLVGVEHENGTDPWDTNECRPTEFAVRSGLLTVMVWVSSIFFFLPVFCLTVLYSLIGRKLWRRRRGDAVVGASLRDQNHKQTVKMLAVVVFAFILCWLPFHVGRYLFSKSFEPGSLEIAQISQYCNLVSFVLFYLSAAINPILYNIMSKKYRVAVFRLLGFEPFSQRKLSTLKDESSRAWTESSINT
Growth hormone secretagogue receptor type 1/Isoform 1B of Growth hormone secretagogue receptor type 1 (1B), sequence (Q92847 whole entry, canonical isoform): as the sequence (Q92847 whole entry) above
Growth hormone secretagogue receptor type 1/Isoform 1B of Growth hormone secretagogue receptor type 1 (1B), sequence (Q92847 as listed by the source): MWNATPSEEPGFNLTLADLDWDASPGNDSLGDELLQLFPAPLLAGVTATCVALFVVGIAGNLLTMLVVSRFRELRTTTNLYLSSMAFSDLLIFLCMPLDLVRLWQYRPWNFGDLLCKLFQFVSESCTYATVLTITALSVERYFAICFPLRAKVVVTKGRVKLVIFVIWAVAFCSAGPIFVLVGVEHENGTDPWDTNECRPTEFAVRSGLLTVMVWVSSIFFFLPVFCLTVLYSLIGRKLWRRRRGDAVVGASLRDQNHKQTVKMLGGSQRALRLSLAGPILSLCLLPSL
Dimer of Growth hormone secretagogue receptor type 1, sequence (Q92847 whole entry): as the sequence (Q92847 whole entry) above

Row | SMILES | Ki [1] | Ki [2] | Ki [3]
1 | COc1ccc(Cn2c(CCc3ccccc3)nnc2C(Cc2c[nH]c3ccccc23)NC(=O)c2ccccn2)c(OC)c1 (configuration not stated) [JMV 3002] | 19.3 nM | 9.9 nM | 9.2 nM
2 | COc1ccc(Cn2c(CCc3c[nH]c4ccccc34)nnc2C(Cc2c[nH]c3ccccc23)NC(=O)c2ccccn2)c(OC)c1 (configuration not stated) [JMV 3011] |  |  | 8.3 nM
3 | CC(C)C[C@H](NC(=O)[C@H](CC(C)C)NC(=O)[C@@H](Cc1c[nH]c2ccccc12)NC(=O)[C@H](Cc1ccccc1)NC(=O)[C@@H](Cc1c[nH]c2ccccc12)NC(=O)[C@H](CCC(N)=O)NC(=O)[C@@H](Cc1c[nH]c2ccccc12)NC(=O)[C@@H]1CCCN1C(=O)[C@H](CCCCN)NC(=O)[C@@H]1CCCN1C(=O)[C@H](N)CCCN=C(N)N)C(N)=O [Substance P [DArg1, DTrp5,7,9,  Leu11]] (H-[dR]PKP[dW]Q[dW]F[dW]LL-NH2) | 292 nM | 286 nM | 294 nM
